Laboratory results: ChEMBL document CHEMBL2375306, “Antimicrobial peptides containing unnatural amino acid exhibit potent bactericidal activity against ESKAPE pathogens” (Bioorg Med Chem, 2013)
Converted amounts (≈) assume the structure as drawn. Square brackets hold non-standard residues; d marks the D form. Peptide text beside a SMILES is read from it. * marks the point of attachment. ξ: configuration not given here. Pro(3ξ,4ξ-(CH2)4) = O=C(O)[C@H]1NCC2CCCCC21; Phe(4-Cl) = N[C@@H](Cc1ccc(Cl)cc1)C(=O)O; Phe(4-F) = N[C@@H](Cc1ccc(F)cc1)C(=O)O; Tic = O=C(O)[C@@H]1Cc2ccccc2CN1; X1 = CC(=O)NC(=O)[C@H](CN)N*; Orn = NCCC[C@H](N)C(=O)O; Dap = NC[C@H](N)C(=O)O; GABA = NCCCC(=O)O; βAla = NCCC(=O)O

Legend:
Assay type in all cases: functional
Enterococcus faecium = test: Antibacterial activity against Enterococcus faecium MMC4 after 24 hrs by broth microdilution method; settings: MMC4, 24 h
Klebsiella aerogenes = test: Antibacterial activity against Enterobacter aerogenes after 24 hrs by broth microdilution method
Pseudomonas aeruginosa = test: Antibacterial activity against Pseudomonas aeruginosa PAO1 after 24 hrs by broth microdilution method; settings: PAO1, 24 h
Klebsiella pneumoniae = test: Antibacterial activity against Klebsiella pneumoniae BAMS clinical isolate 07-18 after 24 hrs by broth microdilution method; settings: BAMS clinical isolate 07-18, 24 h
Acinetobacter baumannii = test: Antibacterial activity against Acinetobacter baumannii WRAIR clinical isolate 13 after 24 hrs by broth microdilution method; settings: WRAIR clinical isolate 13, 24 h
Staphylococcus aureus = test: Antibacterial activity against methicillin-sensitive Staphylococcus aureus UAMS-1 after 24 hrs by broth microdilution method; settings: UAMS-1, 24 h

Row | SMILES | MIC (Enterococcus faecium) | MIC (Klebsiella aerogenes) | MIC (Pseudomonas aeruginosa) | MIC (Klebsiella pneumoniae) | MIC (Acinetobacter baumannii) | MIC (Staphylococcus aureus) | MBC (Enterococcus faecium) | MBC (Klebsiella aerogenes) | MBC (Pseudomonas aeruginosa) | MBC (Klebsiella pneumoniae) | MBC (Acinetobacter baumannii) | MBC (Staphylococcus aureus)
1 | CC(=O)NCC(=O)N[C@@H](Cc1ccc(Cl)cc1)C(=O)N1Cc2ccccc2C[C@H]1C(=O)N1CC2CCCCC2[C@H]1C(=O)NCC(=O)N[C@@H](CCCCN)C(=O)N1Cc2ccccc2C[C@H]1C(=O)N1CC2CCCCC2[C@H]1C(=O)NCC(=O)N[C@@H](Cc1ccc(Cl)cc1)C(=O)N1Cc2ccccc2C[C@H]1C(=O)N1CC2CCCCC2[C@H]1C(=O)NCC(=O)N[C@@H](CCCCN)C(=O)N1Cc2ccccc2C[C@H]1C(=O)N[C@@H](CCCCN)C(=O)N[C@@H](CCCCN)C(=O)N[C@@H](CCCCN)C(=O)N[C@@H](CCCCN)C(N)=O (some centres undefined) (Ac-G[Phe(4-Cl)][Tic][Pro(3ξ,4ξ-(CH2)4)]GK[Tic][Pro(3ξ,4ξ-(CH2)4)]G[Phe(4-Cl)][Tic][Pro(3ξ,4ξ-(CH2)4)]GK[Tic]KKKK-NH2) | 6.25 µg/mL (≈ 2.49 µM) | > 100 µg/mL | 50 µg/mL (≈ 19.9 µM) | 50 µg/mL (≈ 19.9 µM) | 6.25 µg/mL (≈ 2.49 µM) | 25 µg/mL (≈ 9.96 µM) | 25 µg/mL (≈ 9.96 µM) | > 100 µg/mL | 50 µg/mL (≈ 19.9 µM) | 100 µg/mL (≈ 39.8 µM) | 25 µg/mL (≈ 9.96 µM) | 50 µg/mL (≈ 19.9 µM)
2 | CC(=O)NCCCC(=O)N[C@@H](Cc1ccccc1)C(=O)N1Cc2ccccc2C[C@H]1C(=O)N1CC2CCCCC2[C@H]1C(=O)NCCCC(=O)N[C@@H](CCCCN)C(=O)N1Cc2ccccc2C[C@H]1C(=O)N1CC2CCCCC2[C@H]1C(=O)NCCCC(=O)N[C@@H](Cc1ccccc1)C(=O)N1Cc2ccccc2C[C@H]1C(=O)N1CC2CCCCC2[C@H]1C(=O)NCCCC(=O)N[C@@H](CCCCN)C(=O)N1Cc2ccccc2C[C@H]1C(=O)N[C@@H](CCCCN)C(=O)N[C@@H](CCCCN)C(=O)N[C@@H](CCCCN)C(=O)N[C@@H](CCCCN)C(=O)N[C@@H](CCCCN)C(N)=O (some centres undefined) (Ac-[GABA]F[Tic][Pro(3ξ,4ξ-(CH2)4)][GABA]K[Tic][Pro(3ξ,4ξ-(CH2)4)][GABA]F[Tic][Pro(3ξ,4ξ-(CH2)4)][GABA]K[Tic]KKKKK-NH2) |  | > 100 µg/mL | > 100 µg/mL | > 100 µg/mL |  | > 100 µg/mL |  | > 100 µg/mL | > 100 µg/mL | > 100 µg/mL |  | > 100 µg/mL

Now from value to molecule, other results behind:

Row | MIC (Enterococcus faecium) | MIC (Klebsiella aerogenes) | MIC (Pseudomonas aeruginosa) | MIC (Klebsiella pneumoniae) | MIC (Acinetobacter baumannii) | MIC (Staphylococcus aureus) | SMILES | MBC (Enterococcus faecium) | MBC (Klebsiella aerogenes) | MBC (Pseudomonas aeruginosa) | MBC (Klebsiella pneumoniae) | MBC (Acinetobacter baumannii) | MBC (Staphylococcus aureus)
3 | 12.5 µg/mL (≈ 3.91 µM) | 100 µg/mL (≈ 31.2 µM) | 100 µg/mL (≈ 31.2 µM) | 100 µg/mL (≈ 31.2 µM) | 12.5 µg/mL (≈ 3.91 µM) | 50 µg/mL (≈ 15.6 µM) | CC(C)C[C@H](NC(=O)[C@@H](N)CCCN)C(=O)N1Cc2ccccc2C[C@H]1C(=O)N1CC2CCCCC2[C@H]1C(=O)N[C@@H](CCCN)C(=O)N1Cc2ccccc2C[C@H]1C(=O)N1CC2CCCCC2[C@H]1C(=O)N[C@@H](Cc1ccccc1)C(=O)N1Cc2ccccc2C[C@H]1C(=O)N1CC2CCCCC2[C@H]1C(=O)N[C@@H](CCCN)C(=O)N1Cc2ccccc2C[C@H]1C(=O)N1CC2CCCCC2[C@H]1C(=O)N[C@@H](Cc1ccccc1)C(=O)N1Cc2ccccc2C[C@H]1C(=O)N1CC2CCCCC2[C@H]1C(=O)N[C@@H](CCCN)C(=O)N1Cc2ccccc2C[C@H]1C(=O)N1CC2CCCCC2[C@H]1C(=O)N[C@@H](CCCN)C(=O)N[C@@H](CCCN)C(=O)N[C@@H](CCCN)C(=O)N[C@@H](CCCN)C(N)=O (some centres undefined) (H-[Orn]L[Tic][Pro(3ξ,4ξ-(CH2)4)][Orn][Tic][Pro(3ξ,4ξ-(CH2)4)]F[Tic][Pro(3ξ,4ξ-(CH2)4)][Orn][Tic][Pro(3ξ,4ξ-(CH2)4)]F[Tic][Pro(3ξ,4ξ-(CH2)4)][Orn][Tic][Pro(3ξ,4ξ-(CH2)4)][Orn][Orn][Orn][Orn]-NH2) | 50 µg/mL (≈ 15.6 µM) | > 100 µg/mL | > 100 µg/mL | > 100 µg/mL | 100 µg/mL (≈ 31.2 µM) | 100 µg/mL (≈ 31.2 µM)
4 | 25 µg/mL (≈ 10.2 µM) | 100 µg/mL (≈ 41 µM) | 100 µg/mL (≈ 41 µM) | 100 µg/mL (≈ 41 µM) | 6.25 µg/mL (≈ 2.56 µM) | > 100 µg/mL | CC(=O)NCC(=O)N[C@@H](Cc1ccccc1)C(=O)N1Cc2ccccc2C[C@H]1C(=O)N1CC2CCCCC2[C@H]1C(=O)NCC(=O)N[C@@H](CCCCN)C(=O)N1Cc2ccccc2C[C@H]1C(=O)N1CC2CCCCC2[C@H]1C(=O)NCC(=O)N[C@@H](Cc1ccccc1)C(=O)N1Cc2ccccc2C[C@H]1C(=O)N1CC2CCCCC2[C@H]1C(=O)NCC(=O)N[C@@H](CCCCN)C(=O)N1Cc2ccccc2C[C@H]1C(=O)N[C@@H](CCCCN)C(=O)N[C@@H](CCCCN)C(=O)N[C@@H](CCCCN)C(=O)N[C@@H](CCCCN)C(N)=O (some centres undefined) (Ac-GF[Tic][Pro(3ξ,4ξ-(CH2)4)]GK[Tic][Pro(3ξ,4ξ-(CH2)4)]GF[Tic][Pro(3ξ,4ξ-(CH2)4)]GK[Tic]KKKK-NH2) | 50 µg/mL (≈ 20.5 µM) | 100 µg/mL (≈ 41 µM) | 100 µg/mL (≈ 41 µM) | 100 µg/mL (≈ 41 µM) | 25 µg/mL (≈ 10.2 µM) | > 100 µg/mL
5 |  | > 100 µg/mL | 50 µg/mL (≈ 20.8 µM) | 50 µg/mL (≈ 20.8 µM) | 12.5 µg/mL (≈ 5.19 µM) | 100 µg/mL (≈ 41.5 µM) | CC(=O)NCCC(=O)N[C@@H](Cc1ccc(F)cc1)C(=O)N1Cc2ccccc2C[C@H]1C(=O)N1CC2CCCCC2[C@H]1C(=O)NCCC(=O)N[C@@H](CCCCN)C(=O)N1Cc2ccccc2C[C@H]1C(=O)N1CC2CCCCC2[C@H]1C(=O)NCCC(=O)N[C@@H](Cc1ccc(F)cc1)C(=O)N1Cc2ccccc2C[C@H]1C(=O)N1CC2CCCCC2[C@H]1C(=O)NCCC(=O)N[C@@H](CCCCN)C(=O)N1Cc2ccccc2C[C@H]1C(=O)N[C@@H](CN)C(=O)N[C@@H](CN)C(=O)N[C@@H](CN)C(=O)N[C@@H](CN)C(=O)NC(C)=O (some centres undefined) (Ac-[βAla][Phe(4-F)][Tic][Pro(3ξ,4ξ-(CH2)4)][βAla]K[Tic][Pro(3ξ,4ξ-(CH2)4)][βAla][Phe(4-F)][Tic][Pro(3ξ,4ξ-(CH2)4)][βAla]K[Tic][Dap][Dap][Dap]-X1) |  | > 100 µg/mL | > 100 µg/mL | 100 µg/mL (≈ 41.5 µM) | 12.5 µg/mL (≈ 5.19 µM) | > 100 µg/mL
